# Assay results reported in US6491922B1, “Methods and compounds for treating autoimmune and vascular disease” (Cornell Research Foundation, Inc., priority 1996, dated 2002).
# Where “and” joins values, the source holds several entries; their conditions need not be identical. Equal entries are not always repeated. Entries after “also recorded” stand apart in the source; their conditions may differ. Where two headings read alike, the source gives them in different places.
# Columns and labels:
# IL-1β mRNA [1] = assay: IL-1β mRNA stability with actinomycin D in THP-1 cells; type: cell-based, human; details: 2 μM LPG simultaneous with LPS 2 μg/ml, actinomycin D after 2 h
# Procedure: THP-1 cells (10^7 cells/condition) were stimulated with 2 μg/ml LPS or 2 μg/ml LPS with 2 μM LPG at time 0 h. Actinomycin D (6 μg/ml) was added to all conditions 2 h later and cells were harvested by gentle scraping for extraction of total RNA at the designated time. The 2 h time point after LPS or LPS plus LPG treatment was used as the respective reference for comparison with residual IL-1β mRNA at the later time points. For each condition and time, the total RNA separated on agarose gel, transferred and immobilized on nylon membrane were probed with ^32P-labeled IL-1β cDNA or GAPDH cDNA.
# IL-1β promoter = type: cell-based, human; details: for suppression of endotoxin-induced CAT activity: LPG 2 μM 1 h; for suppression of LPS-induced CAT activity: 2 μM LPG 2 h
# NOS mRNA = type: cell-based, human; details: IFN-γ-primed macrophages; LPG 2 μM pretreatment; RT/PCR
# [2] = tested on: HIV p24 antigen, U1 cells; assay: HIV p24 antigen production in chronically HIV-infected U1 cells; type: cell-based; details: 72 h
# Procedure: (§1) LPG, the major surface molecule of Leishmania, has macrophage deactivating functions. Based on the ability of LPG to suppress the generation of ROI and cytokine gene expression, we evaluated the potential that LPG may similarly suppress HIV production. FIGS. 27A-D illustrate the effect of 2 μM LPG pretreatment for 2 h on the induction HIV from chronically HIV-infected monocytic and T cell lines respectively, U1 and ACH-2 cells. LPG treatment of U1 cells for 72 h inhibited basal production of HIV p24 antigen at basal and induction in response to PMA, TNF-α and LPS by 90%, 82%, 60% and 66%, respectively (FIGS. 27A, B). The suppression of HIV p24 antigen production was time-dependent (FIG. 27B). […] The inhibition was also time-dependent. The results are the mean of 2 separate experiments and the SD was less than 10%.
# [3] = tested on: HIV p24 antigen, ACH-2 cells; assay: HIV p24 antigen production in chronically HIV-infected ACH-2 cells; type: cell-based; details: 72 h
# Procedure: as §1
# TNF-α mRNA = TNF-α mRNA expression and stability after endotoxin; type: cell-based, human
# ICAM-1 = assay: Endotoxin-induced ICAM-1 expression on endothelial cells (FACS); type: cell-based, human; details: LPG pretreatment 1 h
# Procedure: Endothelial cells pretreated with LPG at indicated amounts for 1 h were subsequently challenged with endotoxin. Washed cells incubated with monoclonal antibody specific for E-selectin or ICAM-1 were counter stained with fluorescein labeled anti-murine antibody, fixed and analyzed by FACS.
# U1 and ACH-2 cells = assay: Cell viability and proliferation (bromo-deoxy-uridine incorporation) of HIV-infected cell lines; type: cell-based, human
# [4] = tested on: DNA sequence from the −310 to −57 region of the IL-1β promoter; assay: Gel shift assay of nuclear protein binding to IL-1β promoter DNA; type: cell-based, human; details: THP-1 cells treated with LPG; preliminary data
# THP-1 cells = assay: THP-1 cell viability; type: cell-based, human; details: LPG 0.01 to 2 μM, data not shown
# endothelial cells = assay: Endothelial adhesion to monocytes (MM6) assay
# Procedure: Endothelial cell were isolated from human umbilical veins by an established method as described. […] In all experiments, 2-4 passages of subcultured endothelial cells were used and were grown on fibronectin-precoated 96-well plates for 2-3 days prior to use.
# On the day of the experiment, endothelial cells were treated with endotoxin (E. coli, J5, 10 ng/ml) for 4 h. MM6 (1×10^5 cells) were subsequently added to the endotoxin-stimulated endothelial cells. Monocyte adhesion was performed for 20 min at 37° C. Unbound MM6 cells were removed by washing (3×). Adhesion of MM6 onto endothelium was quantitated by counting the bound MM6 cells under a microscope. […] The values of triplicates were averaged, and variations between triplicates were <5%. […] For experiments to examine if LPG could inhibit endotoxin-mediated monocyte adhesion, the endothelial cells were first preincubated with LPG (2 μM) for 1-2 h at 37° C. prior to the addition of endotoxin.
# IL-1β mRNA [5] = assay: Northern analysis of IL-1β mRNA induction in THP-1 cells; details: for amount of IL-1β mRNA in response to LPS: LPS 2 μg/ml 4 h
# Procedure: Human monocytes were cultured in endotoxin free complete medium as previously described. […] THP-1 cells were maintained in RPMI-1640 supplemented with 2 mM L-glutamine, 100 U/ml penicillin-streptomycin, 5×10^−5 M β-mercaptoethanol, and 10% heat-inactivated fetal bovine serum (FBS). For experiments to determine the effect of LPG, THP-1 cells (10×10^6 per condition) were washed with RPMI 1640 and resuspended in complete medium composed of RPMI-1640 supplemented with 2 mM L-glutamine, 100 U/ml penicillin and 100 μg/ml streptomycin. These cells were cultured in 24-well plates with or without 0.01 to 2 μM LPG (0.1 to 20 μg/ml) for different times either before (−h), simultaneously with (0 h) or after (+h) the addition of inducers of IL-1β (eg., LPS, TNF-α, or S. epidermidis). Peripheral blood monocytes enumerated after detachment using a rubber policeman were similarly treated or not with LPG and cultured with stimuli. Cell were stimulated with 0.1 to 3 μg/ml LPS, TNF-α (50 ng/ml), 25 to 50 ng/ml PMA for 4 to 24 h, or opsonized heat-killed S. epiderimidis at ratio of 10 particles per cell.
# Cells treated with or without LPG and/or inducers of IL-1β were harvested by gentle scrapping using a rubber policeman and sedimented by centrifugation at 500 g for 5 minutes in a microfuge. Total RNA was extracted using RNA STAT-60 solution (TEL-TEST “B” Inc., Friendswood, Tex.), based on a single step method for RNA isolation (P. Chomczynski and N. Sacchi, “Single-step Method of RNA Isolation by Acid Guanidinium Thiocyanate-phenol-chloroform Extraction,” Anal. Biochem., 162:156-59 (1987), hereby incorporated by reference), and quantitated by spectrophotometry. Equal amount of total RNA (15-20 μg per sample) was denatured, loaded onto 1.2% agarose-formaldehyde gel, run for 4 h at 30 volts and subsequently transferred by capillary action onto nylon membrane (0.45 μm pore size, NYTRAN, S&S, Keene, N.H.). Membranes were prehybridized at 42° C. for 4 h in prehybridization buffer (50% formamide, 6×SSPE, and 0.5% SDS), and hybridized in hybridization buffer (50% formamide, 6×SSPE, and 5 SDS) containing 10-15×10^6 cpm of random-priming ^32p-labeled IL-1β cDNA (Boehringer Mannheim GmbH, Mannheim, Germany). […] Washed membranes were exposed to KODAK X-OMAT AR films for 24 to 72 h and to phosphor screens (Molecular Dynamics Ltd., Kent, Tenn.) for 24-28 h. Quantitative analysis of the specific bands was performed using Phosphor Imager Analyzer. […] All percent suppression of IL-1β mRNA values were normalized by the amount of GAPDH present in each condition which varied less than 10% between conditions because equivalent amounts of total RNA were loaded for electrophoresis.
# IL-1β mRNA [6] = assay: Northern analysis of IL-1β mRNA induction in peripheral blood monocytes; details: 2 μM LPG pretreatment 2 h, N=2
# Excerpt: Human peripheral blood cells from the New York Blood Center (New York, N.Y.) obtained by Hypaque-Ficoll density centrifugation and adherence to plastic are 99% monocytes. […] Human monocytic cells THP-1 (TIB-202) and plasmid containing glyceraldehyde-3-phosphate dehydrogenase [GAPDH] cDNA (cat. #57090) were obtained from American Type Culture Collection (ATCC), Rockville, MdD. […] RPMI-1640, fetal bovine serum, L-glutamine, and penicillin-streptomycin (Gibco, Grand Island, N.Y.); β-mercaptoethanol, phorbol 12-myristate 13-acetate (PMA) and LPS from Escherichia coli serotype 055: B5 were purchased from the Sigma Chemical Co., St. Louis, Miss.
# Human monocytes were cultured in endotoxin free complete medium as previously described. […]
# Cells treated with or without LPG and/or inducers of IL-1β were harvested by gentle scrapping using a rubber policeman and sedimented by centrifugation at 500 g for 5 minutes in a microfuge. Total RNA was extracted using RNA STAT-60 solution (TEL-TEST “B” Inc., Friendswood, Tex.), based on a single step method for RNA isolation (P. Chomczynski and N. Sacchi, “Single-step Method of RNA Isolation by Acid Guanidinium Thiocyanate-phenol-chloroform Extraction,” Anal. Biochem., 162:156-59 (1987), hereby incorporated by reference), and quantitated by spectrophotometry.
substance,measurement,setting,value
lipophosphoglycan [LPG],enhancement of rate of IL-1β mRNA degradation,IL-1β mRNA [1],approximately 30%
same,LPG's inhibitory activity on LPS-induced CAT activity,IL-1β promoter; IL-1β promoter deleted to −57,completely abrogated; also recorded: no LPG inhibitory activity
same,suppression of CAT activity,IL-1β promoter; IL-1β promoter truncated to −131,7%+1% and 7%
same,suppression of endotoxin-induced CAT activity,IL-1β promoter; deletional mutant X2-HT-CAT (−3757 to −2729 linked to −131 to +11),8%+4% and 8%
same,suppression of endotoxin-induced CAT activity,"IL-1β promoter; full-length −3757 to +11 construct (XT-CAT), n=5",50%+5%
same,effect on endotoxin-activation of IL-1β promoter activity in presence of serum,"IL-1β promoter; medium with 2.5% or 5% FBS, LPG 2 μM 2 h, LPS 2 μg/ml",suppresses; also recorded: similar
same,suppression of LPS-induced CAT activity,"IL-1β promoter; plasmid with −310/+15 promoter sequence, LPS 2 μg/ml",approximately 40%
same,suppression of LPS-induced CAT activity,"IL-1β promoter; plasmid with −680/+15 promoter sequence, LPS 2 μg/ml",approximately 40%
same,suppression of LPS-induced CAT activity,"IL-1β promoter; plasmid with −1110/+15 promoter sequence, LPS 2 μg/ml",approximately 40%
same,effect on M. tuberculosis-induction of NOS mRNA,NOS mRNA,suppressed
same,inhibition of HIV p24 antigen induction in response to LPS,[2]; 2 μM LPG pretreatment 2 h,66%
same,inhibition of HIV p24 antigen induction in response to PMA,[2]; 2 μM LPG pretreatment 2 h,82%
same,inhibition of HIV p24 antigen induction in response to TNF-α,[2]; 2 μM LPG pretreatment 2 h,60%
same,inhibition of basal production of HIV p24 antigen,[2]; 2 μM LPG,90%
same,inhibition of HIV p24 antigen production in response to LPS,[3]; 2 μM LPG pretreatment 2 h,69%
same,inhibition of HIV p24 antigen production in response to PMA,[3]; 2 μM LPG pretreatment 2 h,81%
same,inhibition of HIV p24 antigen production in response to TNF-α,[3]; 2 μM LPG pretreatment 2 h,88%
same,inhibition of basal production of HIV p24 antigen,[3]; 2 μM LPG,62%
same,effect on endotoxin induction of TNF-α expression,TNF-α mRNA; LPG added 2 h after endotoxin,effective
same,effect on endotoxin induction of TNF-α expression,TNF-α mRNA; LPG added 4 h prior to addition of endotoxin,significantly suppressed
same,effect on TNF-α mRNA stability,"TNF-α mRNA; actinomycin D, data not shown",minimal effect
same,effect on endotoxin-mediated expression of ICAM-1,ICAM-1,strongly suppressed; also recorded: blockage or suppression
same,percentages of viable cells,U1 and ACH-2 cells; cells treated or not treated with LPG,98%
same,effect on cell proliferation (bromo-deoxy-uridine incorporation),U1 and ACH-2 cells; each of the stimulation conditions,did not alter
same,induction of nuclear protein(s) binding to promoter DNA sequence,[4],induced the presence of a nuclear protein(s) that bound a DNA sequence derived from this region
same,effect on cell viability,THP-1 cells,not affected
same,inhibition of endotoxin-mediated monocyte adhesion (dose-dependent 0.01 μM to 2 μM),"endothelial cells; 2 μM LPG pretreatment, endotoxin 10 ng/ml 4 h",completely inhibiting
same,effect on IL-1β-mediated endothelial cell adhesion,"endothelial cells; IL-1β 100 U/ml, n=4",lack of LPG inhibitory activity
same,inhibition of endotoxin-mediated monocyte adhesion (time-dependent),"endothelial cells; LPG 2 μM, 2 h pretreatment, endotoxin 10 ng/ml 4 h",completely abrogating
same,TNF-α-mediated endothelial adhesion to monocytes,"endothelial cells; LPG plus TNF-α, TNF-α alone 1,750±100, basal 100±50, n=6","1,650±130 cell/mm^2"
same,minimal pretreatment time required for inhibition of endotoxin-mediated monocyte adhesion,endothelial cells; endothelial cells,15 to 30 min
same,effect on TNF-α-mediated endothelial adhesion to monocytes,endothelial cells; n=6,did not affect
same,IC50,"endothelial cells; read-out: half-maximal inhibitory concentration, endotoxin-mediated monocyte adhesion",~600 nM
same,effect on IL-1β mRNA expression in monocytes,IL-1β mRNA [5]; LPG added simultaneously with the endotoxin,exerted an inhibitory effect
same,effect of washing to remove LPG on LPG's ability to suppress LPS induction of IL-1β mRNA,"IL-1β mRNA [5]; THP-1, 1 or 2 μM LPG 2 h, washed twice, then LPS 4 h",no effect
same,suppression of LPS induction of IL-1β mRNA,"IL-1β mRNA [5]; THP-1, LPG 2 μM added between 2 h before to 1 h after LPS 2 μg/ml",greater than 90%
same,inhibition of TNF-α induced IL-1β mRNA,"IL-1β mRNA [5]; THP-1, LPG 2 μM pretreatment 2 h, TNF-α 50 ng/ml, mean±SD, N=5",approximately 50%±10%
same,inhibition of S. epidermidis-induced IL-1β mRNA,"IL-1β mRNA [5]; THP-1, LPG 2 μM pretreatment for 2 h, N=3",30±10%
same,suppression of S. epidermidis-induced IL-1β mRNA,"IL-1β mRNA [5]; THP-1, LPG 2 μM simultaneous with opsonized S. epidermidis, N=3",greater than 80±19%
same,suppression of PMA induction of IL-1β mRNA,"IL-1β mRNA [5]; THP-1, LPG 2 μM, PMA 25 or 50 ng/ml, N=3",did not suppress
same,inhibitory activity on LPS induction of IL-1β mRNA,"IL-1β mRNA [5]; THP-1, LPG 1 or 2 μM added 4 h before LPS 2 μg/ml",lost
same,effect on S. epidermidis-induced IL-1β mRNA,"IL-1β mRNA [5]; THP-1, LPG 2 h after S. epidermidis induction",minimal to no demonstrable effect
same,suppression of IL-1β mRNA,"IL-1β mRNA [5]; THP-1, LPG added +2 h after LPS stimulation",70%
same,amount of IL-1β mRNA in response to LPS,"IL-1β mRNA [5]; THP-1, pretreated 2 h with 1 μM LPG",lower amounts of IL-1β mRNA
same,amount of IL-1β mRNA in response to LPS,"IL-1β mRNA [5]; THP-1, pretreated 2 h with 2 μM LPG",little or no IL-1β mRNA detected
same,maximum inhibition of IL-1β mRNA (dose-dependent),"IL-1β mRNA [5]; THP-1, pretreated 2 h with LPG 0.01 to 2.0 μM, LPS 0.1 to 3 μg/ml",greater than 90%
same,inhibition of endotoxin-mediated IL-1β mRNA production,"IL-1β mRNA [5]; THP-1, pretreatment with LPG 2 μM, endotoxin 2 μg/ml",completely inhibited
same,inhibition of LPS induction of IL-1β mRNA,IL-1β mRNA [6]; LPS 2 μg/ml,greater than 90%
same,inhibition of S. epidermidis induction of IL-1β mRNA,IL-1β mRNA [6],greater than 80%
